Laboratory results published in US6849598B1, “Therapeutic compositions comprising bactericidal/permeability-increasing (BPI) protein products” (XOMA, priority 1995, dated 2005).
In brackets after ≈: the same amount, converted by molar mass. Read-outs that look alike come from different tables or passages of the source.

Columns and labels:
[1] = tested on: E. faecium; test: Antibiotic susceptibility (MIC, Sensititre Trays) with rBPI21 poloxamer formulations; type: cell-based; details: for MIC: Enterococcus faecium, read-out: Minimum Inhibitory Concentration
Description: The effect of therapeutic compositions of rBPI21 formulated with poloxamer, with or without EDTA, was evaluated on the antibiotic susceptibility of the multiple drug resistant A. baumannii, S. pneumoniae, E. faecium and P. aeruginosa organisms of Example 5. Therapeutic compositions were prepared containing 2 mg/mL rBPI21, (5 mM sodium citrate, 150 mM NaCl) with a 0.2% (w/v) concentration of PLURONIC F68, P103, P104, P105 or P123. The effect on the antibiotic susceptibility of the organisms was determined in Mueller-Hinton Broth plus Cations (CSMHB, Remel), or 40% pooled human serum in CSMHB (Sigma, St. Louis, Mo.), as follows.
Isolated colonies of the organism from overnight cultures were suspended in Microscan® Inoculum Water to a concentration equivalent to a 0.5 McFarland Standard (approximately 1×10^8 CFU/ml), determined using a Microscan® turbidimeter. Aliquots were transferred to either CSMHB or 40% pooled human serum in CSMHB. Each tube contained either a final concentration of 16 μg/mL rBPI21 or an equivalent volume of control buffer. Minimal inhibitory concentrations (MIC) for each antibiotic tested, i.e. the lowest concentration of antibiotic which inhibits visible growth, were determined using gram-negative (MB and MC) and gram-positive (MA) Sensititre Trays (Radiometer America, Westlake, Ohio), which allow for the rapid and simultaneous survey of a broad spectrum of standard antibiotics. Any other antimicrobial panel systems known in the art, such as the Microscan® (Dade Microscan, Sacramento, Calif.), Pasco (DIFCO, Detroit, Mich.) and Alamar (Alamar, Sacramento, Calif.) systems, may alternatively be used to assay for antibiotic susceptibility.
Tables 12-15 below display a summary of the results of the antibiotic screening panels, reported for each strain tested as the MIC of the tested antibiotics in the presence of the indicated rBPI21 therapeutic composition. The antibiotic susceptibility standards (interpretation of an MIC as clinically resistant (R), intermediate (I) or susceptible (S) according to NCCLS standards) applicable to the organism tested appear in superscript next to the MIC.

[2] = tested on: P. aeruginosa (ATCC 19660); test: Antibiotic susceptibility (MIC, Microscan® MIC Plus Type 2 panel) with rBPI21/P123 and EDTA; type: cell-based; parameters: key to susceptibility interpretation of MIC (superscript): R: resistant; I: intermediate; S: susceptible
Description: In additional experiments, a BPI protein product, rBPI21, was formulated with an anti-bacterial activity enhancing poloxamer, specifically PLURONIC P123, and with various concentrations of EDTA, and was evaluated for its effect on the antibiotic susceptibility of a Pseudomonas aeruginosa (ATCC 19660). Antibiotic susceptibility was determined using Microscan® panel plates (Dade Microscan, West Sacramento, Calif.) that allow simultaneous determination of minimum inhibitory concentrations for a number of different antibiotics.
The antimicrobial susceptibility tests performed on the Microscan® panel plates are miniaturizations of the broth dilution susceptibility test. Antimicrobial agents are serially diluted in Mueller-Hinton broth (supplemented with calcium and magnesium, or with sodium chloride for oxacillin, or with thymidine phosphorylase for trimethoprim, sulfamethoxazole and trimethoprim/ sulfamethoxazole) to concentrations bridging the range of clinical interest. One well on the 96-well Microscan® plate is a growth control well that contains dehydrated broth only. The remaining wells contain dehydrated broth and antibiotic (or broth and biochemical reagent indicator), which is rehydrated to the desired concentration by inoculation of a standardized suspension of test organism. The chromogenic biochemical agent indicators are used to identify and characterize the species of bacteria based on detection of pH changes and substrate utilization. […] Gram-negative and gram positive organisms may be tested using any of the Microscan® panel plates (Microscan®, Dade Microscan, West Sacramento, Calif.). In these experiments with P. aeruginosa, the MIC Plus Type 2 panel plates were used. The concentrations of antibiotics tested in this panel plate are shown below in Table 16. The antibiotic susceptibility standards (interpretation of an MIC as resistant, intermediate or susceptible according to Microscan®'s NCCLS-derived standards) applicable to the gram-negative organisms that may be tested in each panel plate appear below in Table 16A.
For these experiments with P. aeruginosa, the following procedure was performed: The organism was streaked onto TSA plates (Remel, Lenexa, Kans.) and incubated for 18-24 hours overnight. Well-isolated A, colonies from the plates were emulsified in 3 ml of sterile Inoculum Water d(catalog no. B1015-2, MicrosScan® system, Dade Microscan, West Sacramento, Calif.) to a final turbidity equivalent to 0.5 McFarland Barium Sulfate standard. This cell suspension was vortexed for 2 to 3 seconds and 100 μl was transferred to glass tubes containing 25 ml of Inoculum Water with Pluronic-D (catalog no. B1015-7, MicroScan® system, Dade Microscan, West Sacramento, Calif.) (hereinafter “Pluronic Inoculum Water”), or 25 ml of Pluronic Inoculum Water into which rBPI21 in 0.2% PLURONIC P123, 0.002% TWEEN 80, 5mM sodium citrate, 150 mM NaCl (“rBPI21/P123”) had been diluted to 64 μg/ml rBPI21.
The 25 ml of this inoculum containing rBPI21 was mixed by inversion and poured into a tray. The inoculum was drawn up into a manual 96-well pipetting system (RENOK^− rehydrator-inoculator system, Dade Microscan, West Sacramento, Calif.) designed for use with the Microscan® panel plates, and 110 μl of the inoculum was delivered to each well of a Microscan® MIC Plus Type 2 panel plate. When added to the wells, this inoculum achieves a final bacterial concentration of 4×10^5 to 7×10^5 CFU/ml. The panel plates were then incubated at 35° C. for 15-24 hours and read visually for cell growth.
No growth was defined as a slight whiteness in the well or a clear broth. Growth appeared as turbidity which could take the form of a white haze throughout the well, a white button in the center of the well, or a fine granule growth throughout the well. All wells were read against a black indirectly lighted background. Visual results of the biochemical reactions were read into a database for bacterial identification.

[3] = CSMHB, 16 μg/mL rBPI21 with F68
[4] = CSMHB, 16 μg/mL rBPI21 with P103
[5] = CSMHB, 16 μg/mL rBPI21 with P104
[6] = CSMHB, 16 μg/mL rBPI21 with P105
[7] = CSMHB, 16 μg/mL rBPI21 with P123
[8] = Serum, 16 μg/mL rBPI21 with F68
[9] = Serum, 16 μg/mL rBPI21 with P103
[10] = Serum, 16 μg/mL rBPI21 with P104
[11] = Serum, 16 μg/mL rBPI21 with P105
[12] = Serum, 16 μg/mL rBPI21 with P123
[13] = rBPI21/P123 at 64 μg/ml rBPI21, With 0% EDTA
[14] = rBPI21/P123 at 64 μg/ml rBPI21, With 0.01% EDTA
[15] = rBPI21/P123 at 64 μg/ml rBPI21, With 0.05% EDTA
[16] = rBPI21/P123 at 64 μg/ml rBPI21, With 0.1% EDTA

`O=C(O)c1cn(C2CC2)c2cc(N3CCNCC3)c(F)cc2c1=O` [Ciprofloxacin] was tested, and the “susceptibility interpretation of MIC (superscript)” value (“susceptibility interpretation” below) [1, 3] was “S”, the “susceptibility interpretation” value [1, 4] was “S” and the “susceptibility interpretation” value [1, 5] was “S”. For the same compound, the “susceptibility interpretation” value [1, 6] was “S”, the “susceptibility interpretation” value [1, 7] was “S” and the “susceptibility interpretation” value ([1]; CSMHB, Control (no BPI)) was “I”. The MIC [1, 3] was 1 µg/mL (≈ 3.02 µM), the MIC [1, 4] was under 0.5 µg/mL and the MIC [1, 5] was 1 µg/mL (≈ 3.02 µM). The MIC [1, 6] was 1 µg/mL (≈ 3.02 µM), the MIC [1, 7] was 1 µg/mL (≈ 3.02 µM) and the MIC ([1]; CSMHB, Control (no BPI)) was 2 µg/mL (≈ 6.04 µM). For the same compound, the “susceptibility interpretation” value [1, 8] was “S”, the “susceptibility interpretation” value [1, 9] was “I” and the “susceptibility interpretation” value [1, 10] was “I”. For the same compound, the “susceptibility interpretation” value [1, 11] was “I”, the “susceptibility interpretation” value [1, 12] was “I” and the “susceptibility interpretation” value ([1]; Serum, Control (no BPI)) was “I”. For the same compound, the “Minimum Inhibitory Concentration of Antibiotic” value (“Minimum Inhibitory Concentration” for short) ([2]; Control (No BPI21)) was under 0.25 µg/mL, the “susceptibility interpretation” value ([2]; Control (No BPI21)) was “S” and the “Minimum Inhibitory Concentration” value [2, 13] was under 0.25 µg/mL. The “susceptibility interpretation” value [2, 13] was “S”, the “Minimum Inhibitory Concentration” value [2, 14] was under 0.25 µg/mL and the “susceptibility interpretation” value [2, 14] was “S”. The “Minimum Inhibitory Concentration” value [2, 15] was under 0.25 µg/mL, the “susceptibility interpretation” value [2, 15] was “S” and the “Minimum Inhibitory Concentration” value [2, 16] was under 0.25 µg/mL. The “susceptibility interpretation” value [2, 16] was “S”.

For `Cn1nnnc1SCC1=C(C(=O)O)N2C(=O)[C@@H](NC(=O)[C@H](O)c3ccccc3)[C@H]2SC1` [Cefamandole], the “Minimum Inhibitory Concentration” value ([2]; Control (No BPI21)) was over 32 µg/mL, the “susceptibility interpretation” value ([2]; Control (No BPI21)) was “R” and the “Minimum Inhibitory Concentration” value [2, 13] was over 32 µg/mL. The “susceptibility interpretation” value [2, 13] was “R”, the “Minimum Inhibitory Concentration” value [2, 14] was over 32 µg/mL and the “susceptibility interpretation” value [2, 14] was “R”. For the same compound, the “Minimum Inhibitory Concentration” value [2, 15] was over 32 µg/mL, the “susceptibility interpretation” value [2, 15] was “R” and the “Minimum Inhibitory Concentration” value [2, 16] was under 4 µg/mL. For the same compound, the “susceptibility interpretation” value [2, 16] was “S” and the “effect of EDTA added to the rBPI21/P123 formulation on susceptibility of the strain to the antibiotic” value ([2]; summary of Table 17) was “reversing resistance”.

For `CO[C@H]1/C=C/O[C@@]2(C)Oc3c(C)c(O)c4c(O)c(c(/C=N/N5CCN(C)CC5)c(O)c4c3C2=O)NC(=O)/C(C)=C\C=C\[C@H](C)[C@H](O)[C@@H](C)[C@@H](O)[C@@H](C)[C@H](OC(C)=O)[C@@H]1C` [Rifampicin], the “susceptibility interpretation” value [1, 3] was “S”, the “susceptibility interpretation” value [1, 4] was “S” and the “susceptibility interpretation” value [1, 5] was “S”. The “susceptibility interpretation” value [1, 6] was “S”, the “susceptibility interpretation” value [1, 7] was “S” and the “susceptibility interpretation” value ([1]; CSMHB, Control (no BPI)) was “R”. For the same compound, the MIC [1, 3] was 0.5 µg/mL (≈ 0.608 µM), the MIC [1, 4] was 0.5 µg/mL (≈ 0.608 µM) and the MIC [1, 5] was 0.5 µg/mL (≈ 0.608 µM). It also gave an MIC [1, 6] of 0.5 µg/mL (≈ 0.608 µM), an MIC [1, 7] of 0.5 µg/mL (≈ 0.608 µM) and an MIC ([1]; CSMHB, Control (no BPI)) of 4 µg/mL (≈ 4.86 µM). The MIC [1, 8] was 1 µg/mL (≈ 1.22 µM), the MIC [1, 9] was 1 µg/mL (≈ 1.22 µM) and the MIC [1, 10] was over 4 µg/mL. It also gave an MIC [1, 11] of 0.5 µg/mL (≈ 0.608 µM), an MIC [1, 12] of 0.5 µg/mL (≈ 0.608 µM) and an MIC ([1]; Serum, Control (no BPI)) of 4 µg/mL (≈ 4.86 µM). For the same compound, the “susceptibility interpretation” value [1, 8] was “S”, the “susceptibility interpretation” value [1, 9] was “S” and the “susceptibility interpretation” value [1, 10] was “R”. The “susceptibility interpretation” value [1, 11] was “S”, the “susceptibility interpretation” value [1, 12] was “S” and the “susceptibility interpretation” value ([1]; Serum, Control (no BPI)) was “R”.

In the case of `CC1(C)S[C@@H]2[C@H](NC(=O)[C@H](NC(=O)N3CCNC3=O)c3ccccc3)C(=O)N2[C@H]1C(=O)O` [Azlocillin], the “Minimum Inhibitory Concentration” value ([2]; Control (No BPI21)) is reported as under 64 µg/mL, the “susceptibility interpretation” value ([2]; Control (No BPI21)) is reported as “S” and the “Minimum Inhibitory Concentration” value [2, 13] is reported as under 64 µg/mL. The “susceptibility interpretation” value [2, 13] was “S”, the “Minimum Inhibitory Concentration” value [2, 14] was under 64 µg/mL and the “susceptibility interpretation” value [2, 14] was “S”. The “Minimum Inhibitory Concentration” value [2, 15] was under 64 µg/mL, the “susceptibility interpretation” value [2, 15] was “S” and the “Minimum Inhibitory Concentration” value [2, 16] was under 64 µg/mL. The “susceptibility interpretation” value [2, 16] was “S”.

`CO[C@@]1(NC(=O)C2SC(=C(C(N)=O)C(=O)O)S2)C(=O)N2C(C(=O)O)=C(CSc3nnnn3C)CS[C@@H]21` (some centres unmarked) [Cefotetan] was tested, and the “Minimum Inhibitory Concentration” value ([2]; Control (No BPI21)) was over 32 µg/mL, the “susceptibility interpretation” value ([2]; Control (No BPI21)) was “R” and the “Minimum Inhibitory Concentration” value [2, 13] was over 32 µg/mL. For the same compound, the “susceptibility interpretation” value [2, 13] was “R”, the “Minimum Inhibitory Concentration” value [2, 14] was under 4 µg/mL and the “susceptibility interpretation” value [2, 14] was “S”. For the same compound, the “Minimum Inhibitory Concentration” value [2, 15] was under 4 µg/mL, the “susceptibility interpretation” value [2, 15] was “S” and the “Minimum Inhibitory Concentration” value [2, 16] was under 4 µg/mL. The “susceptibility interpretation” value [2, 16] was “S”.
